Assay results taken from patent US20160137639A1, “TRIAZOLE-ISOXAZOLE COMPOUND AND MEDICAL USE THEREOF” (JAPAN TOBACCO INC., priority 2012, published 2016).

Tests used:
human RORγ = biological target: T1, human RORγ (Homo sapiens, UniProt P51449); assay: Luciferase reporter gene assay of inhibitory effect against RORγ transcriptional activity (GAL4-hRORγ plasmid in CHO cells); assay type: cell-based; conditions: read-out: LUC EC50 (μM) hRORg
T1 construct: human, NM_005060.3 and from Ser253 to Lys518; expressed in transfected cells; host or cells: CHO cells (transient co-transfection with pG5-Luc reporter)
T1 sequence (P51449 253-518): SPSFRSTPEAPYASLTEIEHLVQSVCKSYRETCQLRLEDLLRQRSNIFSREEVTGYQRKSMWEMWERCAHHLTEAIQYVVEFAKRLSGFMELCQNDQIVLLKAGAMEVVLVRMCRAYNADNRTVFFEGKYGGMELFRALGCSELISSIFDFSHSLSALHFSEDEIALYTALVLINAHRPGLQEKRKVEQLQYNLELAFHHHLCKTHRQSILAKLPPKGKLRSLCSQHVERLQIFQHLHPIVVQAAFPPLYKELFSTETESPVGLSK

mouse RORγ = biological target: T2, mouse RORγ (Mus musculus, UniProt P51450); assay: Luciferase reporter gene assay of inhibitory effect against RORγ transcriptional activity (GAL4-mRORγ plasmid in CHO cells); assay type: cell-based; conditions: read-out: LUC EC50 (μM) mRORg
T2 construct: mouse, NM_011281.2 and from Ile251 to Lys516; expressed in transfected cells; host or cells: CHO cells (transient co-transfection with pG5-Luc reporter)
T2 sequence (P51450 251-516): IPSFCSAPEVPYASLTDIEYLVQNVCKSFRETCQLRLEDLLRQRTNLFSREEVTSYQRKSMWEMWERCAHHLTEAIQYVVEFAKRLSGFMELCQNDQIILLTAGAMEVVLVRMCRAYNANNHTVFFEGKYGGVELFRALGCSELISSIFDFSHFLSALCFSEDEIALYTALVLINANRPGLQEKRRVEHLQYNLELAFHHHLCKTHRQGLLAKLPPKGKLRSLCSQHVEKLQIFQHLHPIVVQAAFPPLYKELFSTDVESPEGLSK
Summary of the method: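 Readout is intracellular luciferase after 2-day compound exposure (8 concentrations, 0.1% DMSO) in CHO cells expressing GAL4 fused to mouse RORγ LBD residues Ile251–Lys516 plus pG5-Luc reporter. EC50 fitted from %-of-control; points showing resazurin-detected cytotoxicity dropped.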

Structure (SMILES)	EC50 (human RORγ)	EC50 (mouse RORγ)
Cc1c(Cl)cccc1NC(=O)CCc1nnc(CCN2CCCCC2)n1C1CC1 [Example F-169]	> 3 µM	> 3 µM
Cc1c(Cl)cccc1NC(=O)CCc1nnc(CCNC(C)C)n1C1CC1 [Example F-171]	> 3 µM	> 3 µM
Cc1c(Cl)cccc1NC(=O)CCc1nnc(CCn2cccn2)n1C1CC1 [Example F-172]	> 3 µM	> 3 µM
COCc1ccc(C)c(NC(=O)CCc2nnc(CCC(C)C)n2C2CC2)c1 [Example F-174]	> 3 µM	> 3 µM
Cc1c(Cl)cccc1NC(=O)CCc1nnc(CC(=O)OC(C)(C)C)n1C1CC1 [Example F-178]	< 3 µM	< 3 µM
COc1ccccc1CNC(=O)CCc1nnc(CCC(C)C)n1C1CC1 [Example F-179]	> 3 µM	> 3 µM
Cc1ccc(NCc2nnc(CCC(=O)Nc3cccc(Cl)c3C)n2C2CC2)cc1 [Example F-180]	> 3 µM	< 3 µM
Cc1c(Cl)cccc1NC(=O)CCc1nnc(CCCC(C)(C)C)n1C1CC1 [Example F-181]	< 3 µM	< 3 µM
CCOC(=O)CCc1nnc(CCC(=O)Nc2cccc(Cl)c2C)n1C1CC1 [Example F-183]	> 3 µM	> 3 µM
Cc1c(Cl)cccc1NC(=O)CCc1nnc(CCC(=O)N(C)C)n1C1CC1 [Example F-184]	> 3 µM	> 3 µM
Cc1c(Cl)cccc1NC(=O)CCc1nnc(CCC(=O)O)n1C1CC1 [Example F-185]	> 3 µM	> 3 µM
Cc1c(Cl)cccc1NC(=O)CCc1nnc(CCN2CCCCC2=O)n1C1CC1 [Example F-187]	> 3 µM	> 3 µM
COc1cc(C)ccc1CNC(=O)CCc1nnc(CCC2CCCCC2)n1C1CC1 [Example F-188]	< 3 µM	< 3 µM
Cc1ccc(O)cc1NC(=O)CCc1nnc(CCC(C)C)n1C1CC1 [Example F-192]	> 3 µM	> 3 µM
COc1cc(C)c(Cl)cc1CNC(=O)CCc1nnc(CCC(C)C)n1C1CC1 [Example F-204]	> 3 µM	> 3 µM
COc1cc(C)c(C)cc1CNC(=O)CCc1nnc(CCC(C)C)n1C1CC1 [Example F-205]	> 3 µM	> 3 µM
Cc1ccc(NCc2nnc(CCC(=O)Nc3cccc(Cl)c3C)n2C2CC2)c(C)c1 [Example F-206]	< 3 µM	< 3 µM
Cc1ccc(NCc2nnc(CCC(=O)Nc3cccc(Cl)c3C)n2C2CC2)cc1C [Example F-207]	< 3 µM	< 3 µM
COc1ccc(F)cc1CNC(=O)CCc1nnc(CCC(C)C)n1C1CC1 [Example F-208]	> 3 µM	> 3 µM
Cc1c(Cl)cccc1NC(=O)CCc1nnc(CN2C(=O)c3ccccc3C2=O)n1C1CC1 [Example F-209]	> 3 µM	> 3 µM
COC(=O)C(C)(C)CCc1nnc(CCC(=O)Nc2cccc(Cl)c2C)n1C1CC1 [Example F-210]	< 3 µM	< 3 µM
Cc1ccc(NC(=O)CCc2nnc(CCCC(C)C)n2C2CC2)c(C)c1 [Example F-215]	< 3 µM	< 3 µM
Cc1cccc(NC(=O)CCc2nnc(CCCC(C)C)n2C2CC2)c1C [Example F-216]	< 3 µM	< 3 µM
COc1cc(C)ccc1CNC(=O)CCc1nnc(CCCC(C)C)n1C1CC1 [Example F-217]	< 3 µM	< 3 µM
Cc1c(Cl)cccc1NC(=O)CCc1nnc(CCOC(C)C)n1C1CC1 [Example F-218]	> 3 µM	< 3 µM

Structure (SMILES)	EC50 (human RORγ)	EC50 (mouse RORγ)
Cc1c(Cl)cccc1NC(=O)CCc1nnc(CNC(=O)C(C)C)n1C1CC1 [Example F-221]	> 3 µM	> 3 µM
Cc1c(Cl)cccc1NC(=O)CCc1nnc(CCC(C)(C)C(=O)O)n1C1CC1 [Example F-226]	> 3 µM	> 3 µM
CC(=O)N1CC[C@H](C(=O)Nc2ccc(C)cc2C)[C@H]1c1nnc(CCC2CCCCC2)n1C1CC1 [Example F-227]	< 3 µM	< 3 µM
COc1cc(C)ccc1CNC(=O)[C@H]1CCN(C(C)=O)[C@@H]1c1nnc(CCC2CCCCC2)n1C1CC1 [Example F-228]	< 3 µM	< 3 µM
COc1cc(F)ccc1CNC(=O)CCc1nnc(CCC(C)C)n1C1CC1 [Example F-229]	> 3 µM	> 3 µM
COC(=O)C(C)(C)CCCc1nnc(CCC(=O)Nc2cccc(Cl)c2C)n1C1CC1 [Example F-230]	< 3 µM	< 3 µM
CNC(=O)C(C)(C)CCc1nnc(CCC(=O)Nc2cccc(Cl)c2C)n1C1CC1 [Example F-231]	> 3 µM	> 3 µM
Cc1c(Cl)cccc1NC(=O)CCc1nnc(CCCC(C)(C)C(=O)O)n1C1CC1 [Example F-232]	> 3 µM	> 3 µM
CC(=O)N(CCc1nnc(CCC(=O)Nc2cccc(Cl)c2C)n1C1CC1)C(C)C [Example F-233]	> 3 µM	> 3 µM
Cc1c(Cl)cccc1NC(=O)CCc1nnc(C2CN(C(=O)OC(C)(C)C)C2)n1C1CC1 [Example F-234]	> 3 µM	< 3 µM
CNC(=O)C(C)(C)CCCc1nnc(CCC(=O)Nc2cccc(Cl)c2C)n1C1CC1 [Example F-237]	> 3 µM	> 3 µM
Cc1c(Cl)cccc1NC(=O)CCc1nnc(CCCC(C)(C)C(=O)N(C)C)n1C1CC1 [Example F-238]	> 3 µM	> 3 µM
Cc1c(Cl)cccc1NC(=O)CCc1nnc(CCC(C)(C)C(=O)N(C)C)n1C1CC1 [Example F-239]	> 3 µM	> 3 µM
CCOC(=O)[C@H]1CC[C@H](CCc2nnc(CCC(=O)Nc3cccc(Cl)c3C)n2C2CC2)CC1 [Example F-240]	> 3 µM	< 3 µM
COc1cc(C)ccc1CNC(=O)CCc1nnc(CC[C@H]2CC[C@H](C)CC2)n1C1CC1 [Example F-241]	< 3 µM	< 3 µM
COC1CCC(CCc2nnc(CCC(=O)Nc3cccc(Cl)c3C)n2C2CC2)CC1 (centres unmarked) [Example F-242]	> 3 µM	< 3 µM
Cc1c(Cl)cccc1NC(=O)CCc1nnc(CC[C@H]2CC[C@H](C(=O)O)CC2)n1C1CC1 [Example F-243]	< 3 µM	> 3 µM
Cc1c(Cl)cccc1NC(=O)CCc1nnc(CC[C@H]2CC[C@H](C(F)(F)F)CC2)n1C1CC1 [Example F-250]	> 3 µM	> 3 µM
COc1cc(C)ccc1CNC(=O)CCc1nnc(CC[C@H]2CC[C@H](C(F)(F)F)CC2)n1C1CC1 [Example F-251]	< 3 µM	< 3 µM
Cc1c(Cl)cccc1NC(=O)CCc1nnc(CCC2CCC(F)(F)CC2)n1C1CC1 [Example F-254]	< 3 µM	< 3 µM
CNC(=O)[C@H]1CC[C@H](CCc2nnc(CCC(=O)Nc3cccc(Cl)c3C)n2C2CC2)CC1 [Example F-255]	> 3 µM	> 3 µM
Cc1ccc(NC(=O)CCc2nnc(CCC3CCC(F)(F)CC3)n2C2CC2)c(C)c1 [Example F-256]	< 3 µM	< 3 µM
COc1cc(C)ccc1CNC(=O)CCc1nnc(CCC2CCC(F)(F)CC2)n1C1CC1 [Example F-257]	< 3 µM	< 3 µM
Cc1c(Cl)cccc1NC(=O)CCc1nnc(CC[C@H]2CC[C@H](C(=O)N(C)C)CC2)n1C1CC1 [Example F-258]	> 3 µM	> 3 µM
